# Read-outs that look alike come from different tables or passages of the source.
# Assays:
# Format in all cases: biochemical
# COX = assay: Biological testing for COX-inhibiting activity, overall outcome on both isoforms; settings: for COX isoform selectivity: COX-1 versus COX-2
# [1] = target: T1, ram seminal vesicle COX-1 (Ovis aries, UniProt P05979); assay: COX-1 inhibition assay (PGE2 EIA); settings: triplicates; for inhibition at 20 µM: read-out: % inhibition at 20µM, COX-1
# T1 construct: ram seminal vesicle COX-1 (1 U) (Sigma–Aldrich); purchased Sigma–Aldrich; host or cells: ram seminal vesicle (tissue of origin)
# T1 sequence (P05979 25-600): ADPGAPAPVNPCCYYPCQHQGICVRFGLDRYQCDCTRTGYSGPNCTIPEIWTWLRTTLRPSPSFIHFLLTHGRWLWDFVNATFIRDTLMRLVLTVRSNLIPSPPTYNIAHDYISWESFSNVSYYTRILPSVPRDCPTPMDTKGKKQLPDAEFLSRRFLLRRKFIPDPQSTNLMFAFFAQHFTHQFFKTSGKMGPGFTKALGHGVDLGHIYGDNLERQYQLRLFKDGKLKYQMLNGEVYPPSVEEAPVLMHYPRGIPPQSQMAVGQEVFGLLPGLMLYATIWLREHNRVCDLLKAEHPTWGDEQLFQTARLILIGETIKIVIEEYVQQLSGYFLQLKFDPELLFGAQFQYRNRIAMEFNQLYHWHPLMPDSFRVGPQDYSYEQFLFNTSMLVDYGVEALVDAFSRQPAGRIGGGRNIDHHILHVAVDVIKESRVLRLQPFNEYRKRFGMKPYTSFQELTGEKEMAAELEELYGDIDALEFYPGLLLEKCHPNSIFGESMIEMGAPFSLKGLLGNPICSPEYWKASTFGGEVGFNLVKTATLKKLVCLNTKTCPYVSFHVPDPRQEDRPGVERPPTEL
# human recombinant COX-2 = target: T2, human recombinant COX-2 (Homo sapiens, UniProt P35354); assay: COX-2 inhibition assay (PGE2 EIA); settings: for inhibition at 20 µM: read-out: % inhibition at 20µM, COX-2
# T2 construct: purchased Sigma–Aldrich
# T2 sequence (P35354 18-604): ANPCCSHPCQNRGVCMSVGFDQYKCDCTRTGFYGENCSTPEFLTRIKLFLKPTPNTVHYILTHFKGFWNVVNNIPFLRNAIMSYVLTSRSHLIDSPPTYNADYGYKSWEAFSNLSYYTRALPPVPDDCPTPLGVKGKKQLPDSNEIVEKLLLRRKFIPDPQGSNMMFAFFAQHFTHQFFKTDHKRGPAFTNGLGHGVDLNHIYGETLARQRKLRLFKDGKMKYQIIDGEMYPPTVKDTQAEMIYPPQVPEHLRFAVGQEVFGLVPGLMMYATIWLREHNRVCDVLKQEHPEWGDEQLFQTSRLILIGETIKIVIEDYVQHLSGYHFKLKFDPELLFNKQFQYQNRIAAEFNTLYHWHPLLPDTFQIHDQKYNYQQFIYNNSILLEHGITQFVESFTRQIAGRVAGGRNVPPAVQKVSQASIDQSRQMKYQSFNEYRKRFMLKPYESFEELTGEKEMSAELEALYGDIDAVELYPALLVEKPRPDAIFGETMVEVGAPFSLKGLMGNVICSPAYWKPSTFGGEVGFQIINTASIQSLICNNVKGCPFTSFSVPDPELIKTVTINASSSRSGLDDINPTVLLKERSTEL
# [2] = biological testing of this study
inhibition at 20 µM [1] [%],"inhibition at 20 µM (human recombinant COX-2; 20 µM, triplicates) [%]",SMILES,Activity (COX; [2]),further results
-4.7 ± 16.2,14.1 ± 18.4,COC(=O)c1ccccc1C(=O)c1ccc(OCCN2CCCCC2)cc1 [Pitofenone],Inactive,
12.9 ± 10.3,14.9 ± 18.3,N[C@@H](Cc1cc(I)c(Oc2cc(I)c(O)c(I)c2)c(I)c1)C(=O)O [Levothyroxin],Inactive,
21 ± 10.9,-11.6 ± 32.2,C#C[C@]1(O)CC[C@H]2[C@@H]3CCC4=C(CCC(=O)C4)[C@H]3CC[C@@]21C [Norethynodrel],Inactive,
3.7 ± 34.6,3.5 ± 6,O=C(OCC(O)CO)c1ccccc1Nc1ccnc2cc(Cl)ccc12 (centres unmarked) [Glafenine],Inactive,
-1.8 ± 14.3,0.1 ± 3.3,"O=C(O)c1ccc(Cl)c(Cl)c1 [3,4-dichlorobenzoic acid]",Inactive,
,,"C/C=C(/C(=C/C)c1ccc(OC(C)=O)cc1)c1ccc(OC(C)=O)cc1 [Dienestrol diacetate (5), Dienestrol diacetate]",Active,"COX isoform selectivity (COX): unselective COX-inhibitor; COX isoform selectivity (COX; listed as dienestrol diactetate (5)): inhibited both isoforms; IC50 ([1]; average of at least two independent experiments, read-out: IC50 COX-1): 4.2 ± 1.5 µM; IC50 (human recombinant COX-2; average of at least two independent experiments, triplicates, read-out: IC50 COX-2): 2 ± 0.9 µM"
36.4 ± 17.4,7.1 ± 18.7,CC(C)(Oc1ccc(Cl)cc1)C(=O)O [Clofibric acid],Inactive,
,,CC(C)(Oc1ccc(Cl)cc1)C(=O)OCCCOC(=O)c1cccnc1 [Ronifibrate],Inactive,"% inhibition at 20µM, COX-1 [1]: 28.2 ± 11.6%; % inhibition at 20µM, COX-2 (human recombinant COX-2; 20 µM, triplicates): 33.0 ± 5.7%"
,,O=S(=O)([O-])c1ccc(N=Nc2ccc(O)cc2O)cc1.[Na+] [Acid orange 6],Inactive,"% inhibition at 20µM, COX-1 [1]: -1.2 ± 6.0%; % inhibition at 20µM, COX-2 (human recombinant COX-2; 20 µM, triplicates): -0.1 ± 5.6%"
,,O=S(=O)([O-])CCNc1ccc(S(=O)(=O)c2ccc(NCCS(=O)(=O)[O-])cc2)cc1.[Na+].[Na+] [Baludon],Inactive,"% inhibition at 20µM, COX-1 [1]: -8.4 ± 8.7%; % inhibition at 20µM, COX-2 (human recombinant COX-2; 20 µM, triplicates): -3.7 ± 15.4%"
,,NS(=O)(=O)c1cc(C(=O)O)c(NCc2ccco2)cc1Cl [Furosemid],,"Activity (COX): Inactive; % inhibition at 20µM, COX-1 [1]: -1.07 ± 17.3%; % inhibition at 20µM, COX-2 (human recombinant COX-2): 8.7 ± 8.9%"
-1.7 ± 9.5,10.7 ± 10.7,O=C(N[C@H](CO)[C@H](O)c1ccc([N+](=O)[O-])cc1)C(Cl)Cl [Chloramphenicol],Inactive,
-1.4 ± 7.7,10.2 ± 7,CC(C)NCC(O)COc1ccc(COCCOC(C)C)cc1 (centres unmarked) [Bisoprolol],Inactive,
-3.2 ± 27.9,-1.8 ± 11.1,CC(=O)Oc1ccc(C2(c3ccc(OC(C)=O)cc3)C(=O)Nc3ccccc32)cc1 [Oxyphenisatin acetate],Inactive,
,,C#C[C@]1(O)CC[C@H]2[C@@H]3CCc4cc(OC)ccc4[C@H]3CC[C@@]21C [17α-ethinylestradiol-3-methylether],,"Activity (COX): Inactive; % inhibition at 20µM, COX-1 [1]: 2.6 ± 11.9%; % inhibition at 20µM, COX-2 (human recombinant COX-2): -10.9 ± 31.4%"
-11 ± 9.6,12.7 ± 5.1,CNC(=C[N+](=O)[O-])NCCSCc1ccc(CN(C)C)o1 [Ranitidine],Inactive,
16.6 ± 18.6,-7.4 ± 25.8,NS(=O)(=O)c1cc2c(cc1Cl)N=C(CSCc1ccccc1)NS2(=O)=O [Benzothiazide],Inactive,
-15.1 ± 23.4,-8.7 ± 8.2,COCCCN1CCN(c2ccccc2OC)CC1 [Dimetholizine],Inactive,
13.8 ± 15.6,-3.2 ± 6.9,Cc1ncc(C[n+]2csc(CCO)c2C)c(N)n1 [Thiamine monochloride],Inactive,
3.7 ± 9.3,-0.9 ± 13.6,NS(=O)(=O)c1ccc(N2CCCCS2(=O)=O)cc1 [Sulthiame],Inactive,
